Assay results taken from paper PMC10150365 (Journal of Medicinal Chemistry, 2023).

Key:
Experiment in all cases: Cerep SafetyScreen-87
Assay type in all cases: binding
Conditions in all cases: n=2
[1] = molecular target: T1, Cannabinoid CB1 (Homo sapiens, UniProt P21554)
T1 construct: purchased Eurofins Cerep/Panlabs SafetyScreen-87

[2] = molecular target: T2, Histamine H1 (Homo sapiens, UniProt P35367)
T2 construct: purchased Eurofins Cerep/Panlabs SafetyScreen-87

[3] = molecular target: T3, Adenosine A1 (Homo sapiens, UniProt P30542)
T3 construct: purchased Eurofins Cerep/Panlabs SafetyScreen-87

[4] = molecular target: T4, Serotonin (5-Hydroxytryptamine) 5-HT2C (Homo sapiens, UniProt P28335)
T4 construct: purchased Eurofins Cerep/Panlabs SafetyScreen-87

[5] = molecular target: T5, Serotonin (5-Hydroxytryptamine) 5-HT1A (Homo sapiens, UniProt P08908)
T5 construct: purchased Eurofins Cerep/Panlabs SafetyScreen-87
T5 sequence (P08908 whole entry): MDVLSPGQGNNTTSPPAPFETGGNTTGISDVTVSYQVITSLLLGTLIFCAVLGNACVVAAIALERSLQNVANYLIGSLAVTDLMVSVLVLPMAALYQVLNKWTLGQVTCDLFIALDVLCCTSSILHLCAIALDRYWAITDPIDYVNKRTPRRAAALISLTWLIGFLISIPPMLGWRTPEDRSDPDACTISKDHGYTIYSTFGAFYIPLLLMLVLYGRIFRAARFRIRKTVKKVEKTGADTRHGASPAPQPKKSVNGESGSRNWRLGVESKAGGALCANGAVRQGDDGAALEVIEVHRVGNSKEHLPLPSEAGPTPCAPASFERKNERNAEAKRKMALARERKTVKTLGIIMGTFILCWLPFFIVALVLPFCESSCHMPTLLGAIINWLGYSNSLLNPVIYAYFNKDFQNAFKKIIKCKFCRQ

[6] = molecular target: T6, Dopamine D2S (Homo sapiens, UniProt P14416)
T6 construct: purchased Eurofins Cerep/Panlabs SafetyScreen-87
T6 sequence (P14416 1-414 isoform P14416-2): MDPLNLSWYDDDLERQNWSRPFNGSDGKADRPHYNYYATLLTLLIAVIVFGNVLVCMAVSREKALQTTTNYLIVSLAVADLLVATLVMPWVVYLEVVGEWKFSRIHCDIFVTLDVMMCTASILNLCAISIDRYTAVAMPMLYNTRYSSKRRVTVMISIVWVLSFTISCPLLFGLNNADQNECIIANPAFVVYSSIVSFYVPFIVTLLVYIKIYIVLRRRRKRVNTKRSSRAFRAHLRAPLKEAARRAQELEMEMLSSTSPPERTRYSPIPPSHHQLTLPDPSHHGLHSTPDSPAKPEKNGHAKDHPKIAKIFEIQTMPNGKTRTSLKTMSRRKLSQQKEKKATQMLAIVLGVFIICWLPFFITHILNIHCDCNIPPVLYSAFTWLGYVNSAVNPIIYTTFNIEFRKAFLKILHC

[7] = molecular target: T7, PPARγ (Homo sapiens, UniProt P37231)
T7 construct: purchased Eurofins Cerep/Panlabs SafetyScreen-87
T7 sequence (P37231 whole entry): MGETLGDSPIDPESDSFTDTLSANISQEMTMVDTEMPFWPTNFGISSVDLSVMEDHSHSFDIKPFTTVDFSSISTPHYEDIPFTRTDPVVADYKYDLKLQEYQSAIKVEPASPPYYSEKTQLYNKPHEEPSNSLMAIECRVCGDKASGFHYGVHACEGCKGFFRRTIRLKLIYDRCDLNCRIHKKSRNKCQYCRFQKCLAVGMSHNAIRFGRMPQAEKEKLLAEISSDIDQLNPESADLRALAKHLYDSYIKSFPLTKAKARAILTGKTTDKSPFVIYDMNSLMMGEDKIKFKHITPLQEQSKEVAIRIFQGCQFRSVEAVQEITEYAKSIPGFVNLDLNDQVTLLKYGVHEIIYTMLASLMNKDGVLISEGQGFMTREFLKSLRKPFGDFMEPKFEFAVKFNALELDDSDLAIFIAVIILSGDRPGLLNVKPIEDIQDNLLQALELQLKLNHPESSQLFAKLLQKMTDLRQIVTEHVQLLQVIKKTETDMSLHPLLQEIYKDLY

[8] = molecular target: Adenosine A2A (Homo sapiens, UniProt P29274); set-up: purchased Eurofins Cerep/Panlabs SafetyScreen-87
[9] = molecular target: T8, Serotonin (5-Hydroxytryptamine) 5-HT3 (Homo sapiens, UniProt P46098)
T8 construct: purchased Eurofins Cerep/Panlabs SafetyScreen-87

[10] = molecular target: T9, Serotonin (5-Hydroxytryptamine) 5-HT2A (Homo sapiens, UniProt P28223)
T9 construct: purchased Eurofins Cerep/Panlabs SafetyScreen-87
T9 sequence (P28223 whole entry, looked up): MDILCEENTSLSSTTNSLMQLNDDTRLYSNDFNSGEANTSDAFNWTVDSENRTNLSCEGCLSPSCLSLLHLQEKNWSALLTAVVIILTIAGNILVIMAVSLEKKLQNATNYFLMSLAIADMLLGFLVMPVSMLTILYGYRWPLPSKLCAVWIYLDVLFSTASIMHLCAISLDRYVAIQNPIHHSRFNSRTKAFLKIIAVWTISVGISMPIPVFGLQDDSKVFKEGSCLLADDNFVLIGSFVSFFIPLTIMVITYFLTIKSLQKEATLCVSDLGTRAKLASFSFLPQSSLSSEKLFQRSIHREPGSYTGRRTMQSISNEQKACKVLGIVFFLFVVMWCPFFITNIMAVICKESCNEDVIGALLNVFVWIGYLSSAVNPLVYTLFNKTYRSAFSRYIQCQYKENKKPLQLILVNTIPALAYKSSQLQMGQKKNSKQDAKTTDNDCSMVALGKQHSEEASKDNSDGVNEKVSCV

[11] = molecular target: T10, Transporter, Dopamine (DAT) (Homo sapiens, UniProt Q01959)
T10 construct: purchased Eurofins Cerep/Panlabs SafetyScreen-87
T10 sequence (Q01959 whole entry): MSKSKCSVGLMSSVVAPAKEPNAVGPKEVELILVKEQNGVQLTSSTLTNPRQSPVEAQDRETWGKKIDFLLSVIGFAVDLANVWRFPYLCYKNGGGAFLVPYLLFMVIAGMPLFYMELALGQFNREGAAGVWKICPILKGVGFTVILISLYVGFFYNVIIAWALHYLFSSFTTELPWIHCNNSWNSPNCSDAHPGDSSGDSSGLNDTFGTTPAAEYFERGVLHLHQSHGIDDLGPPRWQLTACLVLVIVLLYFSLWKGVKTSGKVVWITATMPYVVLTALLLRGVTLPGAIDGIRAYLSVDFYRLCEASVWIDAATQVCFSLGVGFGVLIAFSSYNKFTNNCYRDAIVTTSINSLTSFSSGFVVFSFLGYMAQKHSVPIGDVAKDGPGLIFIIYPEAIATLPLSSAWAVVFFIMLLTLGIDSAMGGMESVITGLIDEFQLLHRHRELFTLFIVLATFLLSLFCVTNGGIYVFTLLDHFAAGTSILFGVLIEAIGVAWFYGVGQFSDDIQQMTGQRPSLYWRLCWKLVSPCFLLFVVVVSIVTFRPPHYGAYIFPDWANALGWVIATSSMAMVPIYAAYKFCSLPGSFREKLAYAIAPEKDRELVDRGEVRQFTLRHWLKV

[12] = molecular target: T11, Calcium Channel N-type (Rattus norvegicus, UniProt Q02294)
T11 construct: purchased Eurofins Cerep/Panlabs SafetyScreen-87

[13] = molecular target: T12, Adrenergic α1A (Rattus norvegicus, UniProt P43140)
T12 construct: purchased Eurofins Cerep/Panlabs SafetyScreen-87
T12 sequence (P43140 whole entry): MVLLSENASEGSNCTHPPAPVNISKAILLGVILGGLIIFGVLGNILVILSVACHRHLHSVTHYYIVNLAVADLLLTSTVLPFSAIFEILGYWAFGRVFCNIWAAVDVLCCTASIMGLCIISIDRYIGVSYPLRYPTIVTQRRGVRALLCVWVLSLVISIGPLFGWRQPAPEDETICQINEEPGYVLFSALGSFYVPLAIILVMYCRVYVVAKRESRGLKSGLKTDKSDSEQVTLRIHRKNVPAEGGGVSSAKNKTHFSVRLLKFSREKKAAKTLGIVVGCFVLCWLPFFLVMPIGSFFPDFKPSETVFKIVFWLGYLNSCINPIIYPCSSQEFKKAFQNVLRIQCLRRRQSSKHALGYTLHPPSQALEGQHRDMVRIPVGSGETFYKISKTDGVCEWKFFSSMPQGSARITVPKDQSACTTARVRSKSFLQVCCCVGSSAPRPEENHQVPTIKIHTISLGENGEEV

[14] = molecular target: T13, Glucocorticoid (Homo sapiens, UniProt P04150)
T13 construct: purchased Eurofins Cerep/Panlabs SafetyScreen-87
T13 sequence (P04150 whole entry): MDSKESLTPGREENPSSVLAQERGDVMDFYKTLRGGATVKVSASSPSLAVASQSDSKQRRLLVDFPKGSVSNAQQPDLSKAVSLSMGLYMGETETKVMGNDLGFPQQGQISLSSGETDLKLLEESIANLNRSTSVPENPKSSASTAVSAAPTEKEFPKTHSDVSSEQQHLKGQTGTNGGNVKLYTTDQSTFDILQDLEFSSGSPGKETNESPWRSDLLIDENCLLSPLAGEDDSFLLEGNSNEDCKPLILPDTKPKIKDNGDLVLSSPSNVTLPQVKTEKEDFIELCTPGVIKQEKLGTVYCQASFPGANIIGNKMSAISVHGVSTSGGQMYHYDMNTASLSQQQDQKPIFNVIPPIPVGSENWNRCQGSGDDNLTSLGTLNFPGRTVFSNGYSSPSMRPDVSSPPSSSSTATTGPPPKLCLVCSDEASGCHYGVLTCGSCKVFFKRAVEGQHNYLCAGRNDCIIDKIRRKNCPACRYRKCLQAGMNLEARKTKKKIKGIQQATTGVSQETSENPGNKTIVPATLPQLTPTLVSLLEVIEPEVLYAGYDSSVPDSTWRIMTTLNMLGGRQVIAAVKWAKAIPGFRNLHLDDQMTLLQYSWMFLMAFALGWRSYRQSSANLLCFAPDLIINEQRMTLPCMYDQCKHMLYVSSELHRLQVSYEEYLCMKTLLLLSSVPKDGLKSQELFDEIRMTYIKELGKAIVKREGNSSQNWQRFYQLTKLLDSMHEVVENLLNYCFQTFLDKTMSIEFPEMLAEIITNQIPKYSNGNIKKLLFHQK

[15] = molecular target: T14, Leukotriene, Cysteinyl CysLT1 (Homo sapiens, UniProt Q9Y271)
T14 construct: purchased Eurofins Cerep/Panlabs SafetyScreen-87
T14 sequence (Q9Y271 whole entry): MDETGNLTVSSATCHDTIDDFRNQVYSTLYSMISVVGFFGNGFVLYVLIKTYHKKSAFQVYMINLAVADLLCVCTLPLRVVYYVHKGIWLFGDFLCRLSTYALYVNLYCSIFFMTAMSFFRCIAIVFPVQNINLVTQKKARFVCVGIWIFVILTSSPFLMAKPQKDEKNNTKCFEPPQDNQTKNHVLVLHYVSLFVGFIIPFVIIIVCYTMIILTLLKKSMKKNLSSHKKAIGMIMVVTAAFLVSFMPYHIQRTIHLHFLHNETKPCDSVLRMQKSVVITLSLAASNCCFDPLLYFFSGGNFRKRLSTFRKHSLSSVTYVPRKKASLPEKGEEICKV

T1 sequence (P21554 whole entry): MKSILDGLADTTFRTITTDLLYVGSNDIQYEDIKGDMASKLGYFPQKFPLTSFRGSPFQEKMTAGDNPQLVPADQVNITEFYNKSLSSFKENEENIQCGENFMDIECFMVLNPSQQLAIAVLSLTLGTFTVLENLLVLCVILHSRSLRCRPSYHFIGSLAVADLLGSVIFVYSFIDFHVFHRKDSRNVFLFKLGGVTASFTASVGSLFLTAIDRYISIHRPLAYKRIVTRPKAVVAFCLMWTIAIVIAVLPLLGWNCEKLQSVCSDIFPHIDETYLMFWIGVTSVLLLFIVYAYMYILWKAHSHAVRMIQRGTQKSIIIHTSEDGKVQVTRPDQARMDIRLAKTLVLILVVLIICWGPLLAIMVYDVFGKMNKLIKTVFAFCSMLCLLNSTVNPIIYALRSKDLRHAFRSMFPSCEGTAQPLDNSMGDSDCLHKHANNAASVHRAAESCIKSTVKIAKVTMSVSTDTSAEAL
T2 sequence (P35367 whole entry): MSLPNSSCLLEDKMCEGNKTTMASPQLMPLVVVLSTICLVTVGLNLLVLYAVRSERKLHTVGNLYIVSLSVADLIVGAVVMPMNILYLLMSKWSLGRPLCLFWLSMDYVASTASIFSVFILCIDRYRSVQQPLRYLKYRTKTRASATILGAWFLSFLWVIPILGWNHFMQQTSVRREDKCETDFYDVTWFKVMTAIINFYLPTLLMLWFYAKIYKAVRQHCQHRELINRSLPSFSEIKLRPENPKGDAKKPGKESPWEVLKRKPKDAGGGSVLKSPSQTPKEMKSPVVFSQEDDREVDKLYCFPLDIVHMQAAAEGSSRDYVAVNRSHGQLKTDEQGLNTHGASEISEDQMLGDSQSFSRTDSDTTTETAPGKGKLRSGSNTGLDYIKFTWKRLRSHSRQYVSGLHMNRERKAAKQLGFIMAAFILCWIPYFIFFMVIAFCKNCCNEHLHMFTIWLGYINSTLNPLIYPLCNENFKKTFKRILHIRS

Question: Which inhibition at 10 µM [1] does the source give for `CCN1CCN(Cc2ccc3cc(C(=O)Nc4cc(NC(=O)c5ccc6c(c5)OCCO6)ccc4F)ccc3n2)CC1` [Compound 22, N-(5-(2,3-Dihydrobenzo[b][1,4]dioxine-6-carboxamido)-2-fluorophenyl)-2-((4-ethylpiperazin-1-yl)methyl)quinoline-6-carboxamide] here?
Answer: 9%

Question: And the inhibition at 10 µM [2]?
Answer: 36%

Question: And the inhibition at 10 µM [3]?
Answer: 11%

Question: What about the inhibition at 10 µM [4] of the same molecule?
Answer: 55%

Question: And the inhibition at 10 µM [5]?
Answer: 4%

Question: And the inhibition at 10 µM [6]?
Answer: 5%

Question: And the inhibition at 10 µM [7]?
Answer: 11%

Question: What about the inhibition at 10 µM [8] of the same molecule?
Answer: 91%

Question: What about the inhibition at 10 µM [9] of the same molecule?
Answer: -10%

Question: What about the inhibition at 10 µM [10] of the same molecule?
Answer: 64%

Question: And the inhibition at 10 µM [11]?
Answer: 38%

Question: And the inhibition at 10 µM [12]?
Answer: 9%

Question: What about the inhibition at 10 µM [13] of the same molecule?
Answer: 38%

Question: What about the inhibition at 10 µM [14] of the same molecule?
Answer: 9%

Question: What about the inhibition at 10 µM [15] of the same molecule?
Answer: 7%
